Measurements: ChEMBL document CHEMBL1201862, “PubChem BioAssay data set” (2004)
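Dose response: 5 concentrations. Exposure: 48 h. Format: 96-well plates. Endpoint: linear interpolation; highest concentration if not reached. The concentration for 50% growth inhibition is given as GI50.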 Active and inactive are the calls of the source. No stated cut-off is given here; in the data, active = GI50 up to about 1.1 µM and inactive = higher.

Legend:
Assay in all cases: growth of human tumour cells (NCI), 48 h
HOP-62 = test system: HOP-62
SN12C = test system: SN12C
IGROV-1 = test system: IGROV-1
MOLT-4 = test system: MOLT-4
SNB-75 = test system: SNB-75
OVCAR-8 = test system: OVCAR-8
Hs-578T = test system: Hs-578T
SF-295 = test system: SF-295
KM12 = test system: KM12
SK-MEL-5 = test system: SK-MEL-5
UACC-62 = test system: UACC-62
SW-620 = test system: SW-620
NCI-H23 = test system: NCI-H23
OVCAR-4 = test system: OVCAR-4
TK-10 = test system: TK-10
OVCAR-5 = test system: OVCAR-5
UACC-257 = test system: UACC-257
NCI-H522 = test system: NCI-H522
SK-OV-3 = test system: SK-OV-3
A498 = test system: A498

Row | Compound | GI50 (HOP-62) | GI50 (SN12C) | GI50 (IGROV-1) | GI50 (MOLT-4) | GI50 (SNB-75) | GI50 (OVCAR-8) | GI50 (Hs-578T) | GI50 (SF-295) | GI50 (KM12) | GI50 (SK-MEL-5) | GI50 (UACC-62) | GI50 (SW-620) | GI50 (NCI-H23) | GI50 (OVCAR-4) | GI50 (TK-10) | GI50 (OVCAR-5) | GI50 (UACC-257) | GI50 (NCI-H522) | GI50 (SK-OV-3) | GI50 (A498)
1 | Cc1ccc(S(=O)(=O)N2C3C=CC(C3)[C@@H]2C(Cl)(Cl)Cl)cc1 (stereo partly drawn) | 10.4 µM (inactive) | 24.2 µM (inactive) | 19.6 µM (inactive) | 19.3 µM (inactive) | 18.2 µM (inactive) | 15.7 µM (inactive) | 5.07 µM (inactive) | 13.6 µM (inactive) | 20.3 µM (inactive) | 19.3 µM (inactive) | 14.6 µM (inactive) | 20 µM (inactive) | 27.2 µM (inactive) | 15.2 µM (inactive) | 18.7 µM (inactive) | 0.0391 µM (active) | 20.1 µM (inactive) | 14 µM (inactive) | – | –
2 | Nc1c(Br)cc(-c2cc(Br)c(N)c(Br)c2)cc1Br | 66.1 µM (inactive) | > 100 µM (inactive) | > 100 µM (inactive) | > 100 µM (inactive) | 59 µM (inactive) | > 100 µM (inactive) | 73.1 µM (inactive) | > 100 µM (inactive) | > 100 µM (inactive) | > 100 µM (inactive) | > 100 µM (inactive) | > 100 µM (inactive) | > 100 µM (inactive) | > 100 µM (inactive) | > 100 µM (inactive) | > 100 µM (inactive) | > 100 µM (inactive) | > 100 µM (inactive) | > 100 µM (inactive) | –
3 | CC[C@@]1(O)C(=O)OCc2c1cc1n(c2=O)Cc2cc3cc(O)ccc3nc2-1 [HYDROXYCAMPTOTHECIN] | < 0.0109 µM (active) | 0.0128 µM (active) | 0.476 µM (active) | 0.00944 µM (active) | 0.014 µM (active) | 0.0142 µM (active) | 1.04 µM (active) | – | – | – | < 0.0075 µM (active) | – | 0.0176 µM (active) | 0.092 µM (active) | 2.69 µM (inactive) | 0.047 µM (active) | – | 0.0105 µM (active) | 0.0227 µM (active) | –
4 | CCOC(=N)CC(=O)Nc1cccc(Cl)c1 | > 100 µM (inactive) | 51.2 µM (inactive) | > 100 µM (inactive) | > 100 µM (inactive) | > 100 µM (inactive) | > 100 µM (inactive) | – | > 100 µM (inactive) | > 100 µM (inactive) | > 100 µM (inactive) | > 100 µM (inactive) | > 100 µM (inactive) | 4.9 µM (inactive) | > 100 µM (inactive) | > 100 µM (inactive) | > 100 µM (inactive) | > 100 µM (inactive) | > 100 µM (inactive) | > 100 µM (inactive) | > 100 µM (inactive)
5 | NC(=O)C(c1ccccc1)N1CCOCC1 (stereo not drawn) | > 100 µM (inactive) | > 100 µM (inactive) | > 100 µM (inactive) | > 100 µM (inactive) | > 100 µM (inactive) | > 100 µM (inactive) | – | > 100 µM (inactive) | > 100 µM (inactive) | > 100 µM (inactive) | > 100 µM (inactive) | > 100 µM (inactive) | > 100 µM (inactive) | > 100 µM (inactive) | > 100 µM (inactive) | > 100 µM (inactive) | > 100 µM (inactive) | > 100 µM (inactive) | > 100 µM (inactive) | > 100 µM (inactive)
6 | O=c1n(CCO)nc2n1CCCN2 | > 100 µM (inactive) | > 100 µM (inactive) | > 100 µM (inactive) | > 100 µM (inactive) | > 100 µM (inactive) | > 100 µM (inactive) | > 100 µM (inactive) | > 100 µM (inactive) | > 100 µM (inactive) | > 100 µM (inactive) | > 100 µM (inactive) | > 100 µM (inactive) | > 100 µM (inactive) | > 100 µM (inactive) | > 100 µM (inactive) | > 100 µM (inactive) | – | – | > 100 µM (inactive) | –
7 | O=Nc1c(-c2cccc([N+](=O)[O-])c2)nc2cnccn12 | 26.6 µM (inactive) | 24.4 µM (inactive) | 17.4 µM (inactive) | 3.92 µM (inactive) | 35.2 µM (inactive) | 14.5 µM (inactive) | 31.7 µM (inactive) | 43.4 µM (inactive) | 30.9 µM (inactive) | 29.4 µM (inactive) | 18.5 µM (inactive) | 10.1 µM (inactive) | 16.7 µM (inactive) | 17.7 µM (inactive) | 5.04 µM (inactive) | 20.1 µM (inactive) | 19.7 µM (inactive) | 14.6 µM (inactive) | 68.7 µM (inactive) | –
8 | COc1ccc(C(=O)N2CCN(c3ccc4[nH]c(=O)oc4c3)CC2)cc1 | > 100 µM (inactive) | > 100 µM (inactive) | 99.1 µM (inactive) | > 100 µM (inactive) | 62.4 µM (inactive) | > 100 µM (inactive) | 58.5 µM (inactive) | > 100 µM (inactive) | > 100 µM (inactive) | > 100 µM (inactive) | 99.3 µM (inactive) | > 100 µM (inactive) | > 100 µM (inactive) | 84.1 µM (inactive) | > 100 µM (inactive) | > 100 µM (inactive) | > 100 µM (inactive) | 53.1 µM (inactive) | > 100 µM (inactive) | –
9 | COc1cc2c(c(OC)c1OC)-c1ccc(SC)c(=O)cc1[C@@H](OC(C)=O)CC2 | < 0.01 µM (active) | < 0.01 µM (active) | < 0.01 µM (active) | < 0.01 µM (active) | < 0.0152 µM (active) | < 0.01 µM (active) | < 0.01 µM (active) | < 0.01 µM (active) | < 0.01 µM (active) | < 0.01 µM (active) | < 0.01 µM (active) | < 0.01 µM (active) | < 0.01 µM (active) | > 100 µM (inactive) | 21.8 µM (inactive) | – | < 0.01 µM (active) | < 0.01 µM (active) | – | –
10 | CC(C)(C)NCc1cc(C(C)(C)C)cc(-c2ccc(Cl)cc2)c1O | 6.14 µM (inactive) | 15.2 µM (inactive) | 11.2 µM (inactive) | – | 10.7 µM (inactive) | – | 13.3 µM (inactive) | 17.3 µM (inactive) | 13.2 µM (inactive) | 16.2 µM (inactive) | 13.7 µM (inactive) | – | 12.6 µM (inactive) | 16.5 µM (inactive) | 12 µM (inactive) | 13.8 µM (inactive) | 28.2 µM (inactive) | 11 µM (inactive) | 17.1 µM (inactive) | –
11 | CCOC(=O)c1c(C)n(C)c2c1cc(O)c1[nH]c3c(c12)CCCC3 | 38.3 µM (inactive) | 24.2 µM (inactive) | 12.7 µM (inactive) | 16.9 µM (inactive) | – | 21 µM (inactive) | 32.7 µM (inactive) | 39.1 µM (inactive) | 15 µM (inactive) | 12.3 µM (inactive) | 18.8 µM (inactive) | 20.8 µM (inactive) | 21 µM (inactive) | 10.8 µM (inactive) | 22.9 µM (inactive) | 28.8 µM (inactive) | 3.61 µM (inactive) | 14 µM (inactive) | 29.4 µM (inactive) | –
12 | CC1=C(C(=O)Nc2ccccc2C)C(c2ccccc2)C(C(=O)Nc2ccccc2C)=C(C)N1 | 40.6 µM (inactive) | 56.6 µM (inactive) | 42.7 µM (inactive) | 9.95 µM (inactive) | 35.6 µM (inactive) | 52 µM (inactive) | – | 36.5 µM (inactive) | 26.6 µM (inactive) | 29.2 µM (inactive) | 27.1 µM (inactive) | 30.5 µM (inactive) | 23.7 µM (inactive) | 28.5 µM (inactive) | 98.6 µM (inactive) | > 100 µM (inactive) | 37.8 µM (inactive) | 28.6 µM (inactive) | > 100 µM (inactive) | 29.7 µM (inactive)
13 | c1cc2ccc3cc4ncccc4c4ccc(c1)c2c34 | 19.9 µM (inactive) | 31.4 µM (inactive) | 1.32 µM (inactive) | 8.59 µM (inactive) | 19.8 µM (inactive) | 6.82 µM (inactive) | > 100 µM (inactive) | 17.1 µM (inactive) | 10.5 µM (inactive) | – | 20.6 µM (inactive) | 17.5 µM (inactive) | 27.5 µM (inactive) | – | 22.8 µM (inactive) | 84.7 µM (inactive) | 56.8 µM (inactive) | 16.7 µM (inactive) | 37.2 µM (inactive) | –
14 | COc1ccc(/C=C2/C(=O)N(/C=C3\C(=O)Oc4ccccc4C3=O)/C(=N/C(C)=O)N2C)cc1OC | > 100 µM (inactive) | > 100 µM (inactive) | > 100 µM (inactive) | > 100 µM (inactive) | 45.9 µM (inactive) | > 100 µM (inactive) | > 100 µM (inactive) | > 100 µM (inactive) | > 100 µM (inactive) | > 100 µM (inactive) | > 100 µM (inactive) | > 100 µM (inactive) | > 100 µM (inactive) | > 100 µM (inactive) | – | > 100 µM (inactive) | > 100 µM (inactive) | > 100 µM (inactive) | > 100 µM (inactive) | –
15 | COc1cccc(NC(=O)CC(=O)N2NC(C)C(/N=N/c3cccc(C(=O)O)c3)C2=O)c1 (stereo not drawn) | > 100 µM (inactive) | > 100 µM (inactive) | > 100 µM (inactive) | > 100 µM (inactive) | > 100 µM (inactive) | > 100 µM (inactive) | – | > 100 µM (inactive) | > 100 µM (inactive) | > 100 µM (inactive) | > 100 µM (inactive) | > 100 µM (inactive) | > 100 µM (inactive) | > 100 µM (inactive) | > 100 µM (inactive) | > 100 µM (inactive) | > 100 µM (inactive) | > 100 µM (inactive) | > 100 µM (inactive) | > 100 µM (inactive)
